According to patent US6114310A, “Efflux pump inhibitors” (priority 1998, dated 2000):

Tested on: Pseudomonas aeruginosa PAM1001
Assay: microbe, parasite or virus in culture
Format: cell-based
In short: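 Checkerboard broth microdilution (NCCLS) with the efflux pump inhibitor and levofloxacin, each diluted along one axis of the plate, in Mueller Hinton Broth. Inoculum 5×10^5 CFU/ml from early-log culture; incubation 20 h at 35° C. Growth read at 650 nm and visually.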

D-Ornithyl-β-[N-(isobutyl)]alanine quinoline-3-amide [Compound 40 (Table 3)]
Levofloxacin MIC Against P. aeruginosa PAM1001 in Presence of Efflux Pump Inhibitor (EPI), Minimum Inhibitory Concentration (Table 1, EPI Conc. 0 μg/ml): 4 µg/mL | Levofloxacin MIC Against P. aeruginosa PAM1001 in Presence of Efflux Pump Inhibitor (EPI), Minimum Inhibitory Concentration (Table 1, EPI Conc. 0.625 μg/ml): 4 µg/mL | Levofloxacin MIC Against P. aeruginosa PAM1001 in Presence of Efflux Pump Inhibitor (EPI), Minimum Inhibitory Concentration (Table 1, EPI Conc. 5 μg/ml): 1 µg/mL | Levofloxacin MIC Against P. aeruginosa PAM1001 in Presence of Efflux Pump Inhibitor (EPI), Minimum Inhibitory Concentration (Table 1, EPI Conc. 10 μg/ml): 0.06 µg/mL | Levofloxacin MIC Against P. aeruginosa PAM1001 in Presence of Efflux Pump Inhibitor (EPI), Minimum Inhibitory Concentration (Table 1, EPI Conc. 40 μg/ml): 0.015 µg/mL | Levofloxacin MIC Against P. aeruginosa PAM1001 in Presence of Efflux Pump Inhibitor (EPI), Minimum Inhibitory Concentration (Table 1, EPI Conc. […]): 4 µg/mL | Levofloxacin MIC Against P. aeruginosa PAM1001 in Presence of Efflux Pump Inhibitor (EPI), Minimum Inhibitory Concentration (Table 1, EPI Conc. μg/ml (number not given; column between 10 and 40 μg/ml)): 0.03 µg/mL | Levofloxacin MIC Against P. aeruginosa PAM1001 in Presence of Efflux Pump Inhibitor (EPI), Minimum Inhibitory Concentration (Table 2, EPI Conc. 0 μg/ml): 4 µg/mL | Levofloxacin MIC Against P. aeruginosa PAM1001 in Presence of Efflux Pump Inhibitor (EPI), Minimum Inhibitory Concentration (Table 2, EPI Conc. 0.625 μg/ml): 4 µg/mL | Levofloxacin MIC Against P. aeruginosa PAM1001 in Presence of Efflux Pump Inhibitor (EPI), Minimum Inhibitory Concentration (Table 2, EPI Conc. 5 μg/ml): 1 µg/mL | Levofloxacin MIC Against P. aeruginosa PAM1001 in Presence of Efflux Pump Inhibitor (EPI), Minimum Inhibitory Concentration (Table 2, EPI Conc. 10 μg/ml): 0.06 µg/mL | Levofloxacin MIC Against P. aeruginosa PAM1001 in Presence of Efflux Pump Inhibitor (EPI), Minimum Inhibitory Concentration (Table 2, EPI Conc. 40 μg/ml): 0.06 µg/mL | Levofloxacin MIC Against P. aeruginosa PAM1001 in Presence of Efflux Pump Inhibitor (EPI), Minimum Inhibitory Concentration (Table 2, EPI Conc. μg/ml (number not given; column between 10 and 40 μg/ml)): 0.06 µg/mL | Levofloxacin MIC Against P. aeruginosa PAM1001 in Presence of Efflux Pump Inhibitor (EPI), Minimum Inhibitory Concentration (Table 3, EPI Conc. 0 μg/ml): 4 µg/mL | Levofloxacin MIC Against P. aeruginosa PAM1001 in Presence of Efflux Pump Inhibitor (EPI), Minimum Inhibitory Concentration (Table 3, EPI Conc. 0.625 μg/ml): 4 µg/mL | Levofloxacin MIC Against P. aeruginosa PAM1001 in Presence of Efflux Pump Inhibitor (EPI), Minimum Inhibitory Concentration (Table 3, EPI Conc. 5 μg/ml): 0.06 µg/mL | Levofloxacin MIC Against P. aeruginosa PAM1001 in Presence of Efflux Pump Inhibitor (EPI), Minimum Inhibitory Concentration (Table 3, EPI Conc. 10 μg/ml): 0.015 µg/mL | Levofloxacin MIC Against P. aeruginosa PAM1001 in Presence of Efflux Pump Inhibitor (EPI), Minimum Inhibitory Concentration (Table 3, EPI Conc. 40 μg/ml): 0.015 µg/mL | Levofloxacin MIC Against P. aeruginosa PAM1001 in Presence of Efflux Pump Inhibitor (EPI), Minimum Inhibitory Concentration (Table 3, EPI Conc. μg/ml (number not given; column between 10 and 40 μg/ml)): 0.015 µg/mL | Levofloxacin MIC Against P. aeruginosa PAM1001 in Presence of Efflux Pump Inhibitor (EPI), Minimum Inhibitory Concentration (Table 4, EPI Conc. 0 μg/ml): 4 µg/mL | Levofloxacin MIC Against P. aeruginosa PAM1001 in Presence of Efflux Pump Inhibitor (EPI), Minimum Inhibitory Concentration (Table 4, EPI Conc. 0.625 μg/ml): 4 µg/mL | Levofloxacin MIC Against P. aeruginosa PAM1001 in Presence of Efflux Pump Inhibitor (EPI), Minimum Inhibitory Concentration (Table 4, EPI Conc. 5 μg/ml): 1 µg/mL | Levofloxacin MIC Against P. aeruginosa PAM1001 in Presence of Efflux Pump Inhibitor (EPI), Minimum Inhibitory Concentration (Table 4, EPI Conc. 10 μg/ml): 0.25 µg/mL | Levofloxacin MIC Against P. aeruginosa PAM1001 in Presence of Efflux Pump Inhibitor (EPI), Minimum Inhibitory Concentration (Table 4, EPI Conc. 40 μg/ml): 0.06 µg/mL | Levofloxacin MIC Against P. aeruginosa PAM1001 in Presence of Efflux Pump Inhibitor (EPI), Minimum Inhibitory Concentration (Table 4, EPI Conc. μg/ml (number not given; column between 10 and 40 μg/ml)): 0.06 µg/mL
